For 10 compounds, TGI and GI50 results are on record in PubChem BioAssay (NCI).

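Exposure lasted 48 hours, with cells grown in 96-well plates and compounds tested at five concentrations. GI50 = concentration required for 50% inhibition of growth. TGI: total growth inhibition.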

Some test systems named below: SR leukemia; HL-60(TB) leukemia; HS 578T breast; IGROV1 ovarian; NCI-H23 lung; OVCAR-4 ovarian; PC-3 prostate; SK-MEL-2 melanoma; MOLT-4 leukemia; HCT-116 colon.
What all share (assay): NCI-60 cell line screen, 48 h

As for `CC1=C2CC(C)(C)/C=C\C(=O)/C(C)=C\C3=C[C@H](C)C[C@]3(O2)C1=O`, the TGI came to 0.826 µM in the assay on SR leukemia; 2.43 µM in the assay on HL-60(TB) leukemia; 22.3 µM in the assay with HS 578T breast; 5.44 µM with IGROV1 ovarian; 3.76 µM with NCI-H23 lung; 5.28 µM in the assay with OVCAR-4 ovarian. The TGI in the assay with PC-3 prostate is 7.09 µM; in the assay with SK-MEL-2 melanoma, 7.69 µM; in the assay on MOLT-4 leukemia, 1.53 µM; in the assay with HCT-116 colon, 1.09 µM.
On to `O=C1C(=C(C(F)(F)Cl)C(F)(F)Cl)C2CCC1C2` (stereo not given), for which the TGI in the assay with SR leukemia is above 3.34 µM; in the assay on HL-60(TB) leukemia, above 3.16 µM; with HS 578T breast, above 10 µM; with IGROV1 ovarian, 3.62 µM; in the assay with NCI-H23 lung it was 4.63 µM; in the assay on OVCAR-4 ovarian, 8.31 µM. Besides, the TGI in the assay with PC-3 prostate is 5.48 µM; in the assay with SK-MEL-2 melanoma, 4.21 µM; with MOLT-4 leukemia, above 3.53 µM; with HCT-116 colon, 3.61 µM.
On to `COC(=O)c1ccc2c(c1)C(=O)c1c-2n(CCCCl)c(=O)c2cc([N+](=O)[O-])ccc12`, for which the GI50 with SR leukemia is 4.94 µM; in the assay with HL-60(TB) leukemia, above 100 µM; in the assay with HS 578T breast it was above 100 µM; in the assay on IGROV1 ovarian, 34.9 µM; in the assay on NCI-H23 lung it was 94.6 µM; in the assay with OVCAR-4 ovarian, above 100 µM. For the same compound, the GI50 with PC-3 prostate is above 100 µM; in the assay on SK-MEL-2 melanoma, above 100 µM; with MOLT-4 leukemia, 26 µM; with HCT-116 colon, 42.1 µM. Further, the TGI in the assay on SR leukemia, in the assay with HL-60(TB) leukemia, with HS 578T breast, with IGROV1 ovarian, with NCI-H23 lung and in the assay with OVCAR-4 ovarian was above 100 µM each time. Besides, the TGI with PC-3 prostate, in the assay on SK-MEL-2 melanoma, with MOLT-4 leukemia and in the assay on HCT-116 colon was above 100 µM each time.
Turning to `CO[C@H]1C=CO[C@@]2(C)Oc3c(C)c(O)c4c(O)c(c(CN5CCN(C)CC5)c(O)c4c3C2=O)NC(=O)/C(C)=C\C=C[C@H](C)[C@H](O)C(C)[C@@H](O)C(C)[C@H](OC(C)=O)[C@@H]1C` (stereo not given in full), the TGI is 35.5 µM in the assay on SR leukemia; 83.7 µM in the assay with HL-60(TB) leukemia; above 100 µM with HS 578T breast; above 100 µM in the assay with IGROV1 ovarian; above 77.6 µM with NCI-H23 lung; above 100 µM in the assay on OVCAR-4 ovarian. The TGI was above 100 µM in the assay on PC-3 prostate, above 100 µM with SK-MEL-2 melanoma, 49.1 µM in the assay on MOLT-4 leukemia and 35.9 µM with HCT-116 colon.
As for `CC/C=C\C[C@H](F)C/C=C1/C(=O)C=C[C@@H]1C/C=C\CCCC(=O)OC`, the GI50 in the assay on SR leukemia was 1.06 µM; in the assay on HL-60(TB) leukemia it was 1.52 µM; with HS 578T breast it was 3.51 µM; in the assay on IGROV1 ovarian, 1.94 µM; in the assay with NCI-H23 lung, 2.16 µM; with OVCAR-4 ovarian it was 3.35 µM. For the same compound, the GI50 was 1.74 µM in the assay with PC-3 prostate, 4.88 µM with SK-MEL-2 melanoma, 1.45 µM in the assay on MOLT-4 leukemia and 0.88 µM with HCT-116 colon. Also, the TGI in the assay with SR leukemia stood at 3.42 µM; in the assay with HL-60(TB) leukemia, 6.29 µM; in the assay with HS 578T breast it was 21 µM; in the assay on IGROV1 ovarian, 8.58 µM; in the assay on NCI-H23 lung, 10.9 µM; with OVCAR-4 ovarian, 10.1 µM. Further, the TGI is 5.7 µM with PC-3 prostate, 13 µM with SK-MEL-2 melanoma, 5.27 µM in the assay on MOLT-4 leukemia and 1.79 µM with HCT-116 colon.
As to `CN(C)CCCN(CCC1CCCCC1)CCC1CCCCC1`, the GI50 in the assay with SR leukemia was 0.731 µM; in the assay on HL-60(TB) leukemia, 2.09 µM; with HS 578T breast, 1.9 µM; in the assay with IGROV1 ovarian, 1.91 µM; in the assay with NCI-H23 lung it was 4.8 µM; in the assay with OVCAR-4 ovarian it was 7.41 µM. Moreover, the GI50 in the assay on PC-3 prostate is 4.47 µM; in the assay with SK-MEL-2 melanoma it was 1.93 µM; in the assay with MOLT-4 leukemia, 1.85 µM; in the assay on HCT-116 colon, 1.57 µM. The TGI in the assay with SR leukemia came out at 3.25 µM; in the assay on HL-60(TB) leukemia, 9.88 µM; in the assay on HS 578T breast, 4.76 µM; in the assay with IGROV1 ovarian it was 4.65 µM; in the assay on NCI-H23 lung, 17.9 µM; in the assay on OVCAR-4 ovarian, 27.7 µM. Further, the TGI is 17.9 µM in the assay on PC-3 prostate, 3.73 µM in the assay on SK-MEL-2 melanoma, 7.93 µM in the assay on MOLT-4 leukemia and 3.64 µM in the assay with HCT-116 colon.
Consider `Cc1ccc2oc(=O)cc(/C(=C3/C=CC=N3)c3ccc[nH]3)c2c1`, for which the GI50 with SR leukemia was 0.34 µM; in the assay with HL-60(TB) leukemia, 0.271 µM; with HS 578T breast it was 0.391 µM; with IGROV1 ovarian, 0.468 µM; in the assay on NCI-H23 lung, 0.484 µM; in the assay with OVCAR-4 ovarian it was 1.58 µM. In addition, the GI50 in the assay on PC-3 prostate was 0.274 µM; with SK-MEL-2 melanoma, 0.74 µM; in the assay with MOLT-4 leukemia it was 0.378 µM; in the assay with HCT-116 colon, 0.375 µM. The TGI came to 1.46 µM in the assay with SR leukemia; 0.717 µM in the assay on HL-60(TB) leukemia; 4.7 µM in the assay on HS 578T breast; 6.5 µM with IGROV1 ovarian; 3.66 µM in the assay with NCI-H23 lung; 9.56 µM in the assay on OVCAR-4 ovarian. In addition, the TGI with PC-3 prostate came out at 1.54 µM; in the assay on SK-MEL-2 melanoma it was 2.89 µM; in the assay with MOLT-4 leukemia, 2.14 µM; with HCT-116 colon, 1.79 µM.
As for `CN(C)CCN1C(=O)c2cccc3cc([N+](=O)[O-])cc(c23)C1=O`, the TGI in the assay with SR leukemia was 97 µM; in the assay on HL-60(TB) leukemia, above 45.3 µM; with HS 578T breast, 4.65 µM; in the assay on IGROV1 ovarian, 4.49 µM; in the assay with NCI-H23 lung, 1.24 µM; in the assay on OVCAR-4 ovarian, 6.37 µM. For the same compound, the TGI came out at 3.49 µM with PC-3 prostate, 3.14 µM with SK-MEL-2 melanoma, 2.04 µM with MOLT-4 leukemia and 6.7 µM in the assay with HCT-116 colon.
For the compound `CC(=O)Nc1cc2cc(N)ccc2oc1=O`, the TGI in the assay on SR leukemia, in the assay with HL-60(TB) leukemia, in the assay with HS 578T breast, in the assay on IGROV1 ovarian, in the assay on NCI-H23 lung and in the assay on OVCAR-4 ovarian was above 100 µM throughout. For the same compound, the TGI with PC-3 prostate, in the assay with SK-MEL-2 melanoma, in the assay with MOLT-4 leukemia and with HCT-116 colon was above 100 µM each time.
In the case of `C=C1CC2(CC(c3ccccc3Cl)OC(c3ccccc3Cl)C2)OC1=O` (stereo not given), the TGI is 14.2 µM in the assay on SR leukemia; 12.1 µM in the assay on HL-60(TB) leukemia; 4.71 µM in the assay on HS 578T breast; 4.62 µM in the assay on IGROV1 ovarian; 9.03 µM with NCI-H23 lung; 8.56 µM in the assay on OVCAR-4 ovarian. Further, the TGI in the assay with PC-3 prostate was 6.84 µM; with SK-MEL-2 melanoma, 6.78 µM; in the assay on MOLT-4 leukemia, 6.19 µM; in the assay on HCT-116 colon it was 3.17 µM.
